According to US12285462B2, “pH-triggered membrane peptide-mediated epitope tethering at cell surfaces” (UNIVERSITY OF RHODE ISLAND BOARD OF TRUSTEES, priority 2019, dated 2025):
Primed or numbered codes have the meaning given here. Where no end group is shown, it is not given here. Side-chain parts run from the residue outwards. The star is where a group is joined. Dnp = O=[N+]([O-])c1ccc(*)c([N+](=O)[O-])c1; PEG12′ = not defined here

Tested on: HeLa cells (tumor spheroids)
Assay: Complement-mediated killing of tumor spheroids (anti-DNP antibody or human IgM, human serum with active complement, PI staining)
Type: cell-based
Conditions: 5 µM construct 1 hour PBS pH6.5, anti-DNP antibody or human IgM 1 hr pH7.4, human serum with active complement and PI, FIG. 8, imaged 2 hours after treatment
Protocol: The key for induction of immunological response is a proper positioning of epitope at the surface of tumor cells, which was verified on 3-D tumor cancer cell culture (tumor spheroids). Briefly, a 2% agarose solution was made by dissolving in pH 7.4 PBS. 150 μL of the solution was pipetted into each well of a 48-well flat bottom tissue culture plate. After the agarose gel sufficiently settled (˜1 h), 150 μL of DMEM supplemented with 10% FBS and ciprofloxacin-HCl was added to each well. The covered plate was left in a humidified atmosphere at 37° C. and 5% CO2 in cell culture incubator for 24 h. On the next day, the excess medium was removed from the agarose layer. HeLa cells (10,000 cells) in 200 μL of DMEM containing 2% matrigel were added into each well and incubated for 3-4 days to allow the formation of spheroids. Matrigel was dissolved on ice overnight and added in ice cold DMEM at a concentration of 2.5% (to obtain a final concentration of 2% once added to the wells). Then the mixture was heated to 37° C. before being combined with the cells. […] After treatment, the spheroids were washed several times in 1 mL of PBS. Next, spheroids were treated with anti-DNP antibody labeled with 647 nm fluorescent dye at pH 7.4 followed by washing. Spheroids were also stained with DAPI to mark cell nucleus. […]

## DNP-PEG12-pHLIP®: DNP-PEG12-NHS conjugated with single Lys residue at N-terminal of pHLIP® peptide Ac-AKDDQNPWRAYLDLLFPTDTLLLDLLWA (SEQ ID NO: 510) (Ac-AK([PEG12′-Dnp])DDQNPWRAYLDLLFPTDTLLLDLLWA)
  PI staining (red color) of dead or dying cells after complement-mediated attack: plasma membrane of cells was comrpomized by complement-mediated attack and that the cells were dying
